The numbers were not newly measured in patent US20050226908A1, “Efficacious composition of a benzimidazole, an avermectin and praziquantel and related methods of use” (Akzo Nobel N.V., priority 2004, published 2005), which cites them from elsewhere.

This data set concerns parasites. The conditions noted are these: fenbendazole alone, one time treatment at 100 or 150 mg/kg; JAVMA 180, 1:53 (1982) and Am J Vet Res 39, 11:1799 (1978).

For the molecule `COC(=O)Nc1nc2ccc(Sc3ccccc3)cc2[nH]1` [fenbendazole], the “Efficacy of one time treatment” value was “not efficacious”.
